{
  "source": "patent US6372715B1",
  "about": "“Use of erythropoientin and iron preparations for producing pharmaceutical combination preparations for treating rheumatic diseases” (Roche Diagnostics GmbH, priority 1997, dated 2002)",
  "origin": "cited, not measured here",
  "data": [
    {"smiles": "[Fe]", "note": "[elementary iron]", "values": [
      {"measurement": "oral iron resorption", "setting": "oral", "result": "about 1 mg per day"},
      {"measurement": "oral iron resorption under extreme loading", "setting": "oral administration of about 300 mg Fe(III)/day", "result": "less than 3 mg per day"}
    ]}
  ]
}
